Experimental data reported in patent publication US9688760B2, “Anti-leukocyte adhesion for the mitigation of potential adverse events caused by CD3-specific binding domains” (AMGEN RESEARCH (MUNICH) GMBH, priority 2013, dated 2017).

System: HBMEC
Experiment: In vitro flow chamber: T cell-rolling on HBMEC, long-term conditions
Format: cell-based, human
Description: Human brain microvascular endothelial cells (HBMEC) (#1000, Sciencell Research Laboratories) or human umbilical vein endothelial cells (HUVEC) (#C-12200, Promocell) were used as endothelial cell-model. Cryopreserved HBMEC at passage 1 (>5×10^5 cells/ml) were first cultivated in fibronectin-coated Nunclon-treated 75 cm^2 cell culture flasks (#156499, Nunc) at 37° C. and 5% CO2 in a Heraeus Cytoperm 2 (Thermo Scientific) according to the manufacturer's instructions. Sub-cultivation of HBMEC was done with the Detach Kit (#C-41200, Promocell) consisting of HEPES-buffered balanced salt solution (#C-40000, Promocell), trypsin-EDTA solution (0.04%/0.03%) (#C-41000, Promocell) and trypsin neutralization solution (TNS, #C-41100, Promocell). Briefly, the medium was aspirated from the HBMEC-layer and cells were washed with 2 ml of HEPES-buffered balanced salt solution. Addition of 2 ml of trypsin-EDTA solution for 1-5 min at room temperature led to detachment of HBMEC from the flask bottom. Inactivation of trypsin-EDTA solution was performed by addition of 2 ml of trypsin neutralization solution to the cell suspension. Cells were centrifuged at 300 g for 4 min in a Heraeus Megafuge 40 (Thermo Scientific) and seeded at a cell density of 5×10^5 cells per gelatin-coated 75 cm^2 cell culture flask (#L7230, Biochrom). HBMEC for rolling and adhesion experiments were cultivated in RPMI 1640 medium (#FG1215, Biochrom) supplemented with Nu-Serum IV (10%) (#355505, BD Biosciences), dialyzed FBS (10%) (#SZ0115, Biochrom), MEM-vitamins (1%) (#K0373, Biochrom), L-glutamine (1%) (#K0283, Biochrom), sodium-pyruvate (1%) (#L0473, Biochrom), heparin (10 U/ml) (#L6510, Biochrom), and […] cell growth factor ECGS (30 μg/ml) (#02-102, Millipore). Cultivation of HUVEC was done in endothelial cell growth medium (#C-22010, Promocell) supplemented with dialyzed FBS (10%) (#SZ0115, Biochrom) using gelatin-coated 75 cm^2 cell culture flasks. Sub-cultivation of HUVEC was performed with the Detach Kit ([…], Promocell) and cells were seeded at a cell density of 4.0-7.5×10^5 cells per 75 cm^2 cell culture flask.
Isolation of human PBMC from blood was performed by modified density gradient centrifugation as described elsewhere. Briefly, 15-20 ml of freshly drawn heparinized blood was transferred in Biocoll (#L6115, Biochrom)-containing Leukosep tubes (#227290, Greiner bio-one) and centrifuged in a Hettich Rotanta 460 RS Type 5606 (Hettich Laborapparate) at 1066 g for 15 min. After removal of the plasma fraction the PBMC containing phase was transferred in a new tube and washed twice with FACS-buffer (D-PBS #L1820, 5% FBS #SO115, Biochrom). Erythrocyte lysis was performed with lysis buffer (8.29 g/l NH4Cl, 1.00 g/l KHCO3, 0.037 g/l EDTA) for 5 min at room temperature. For subsequent purification of untouched T cells the human Pan T cell-isolation Kit II (#130-091-156, Miltenyi Biotec) was used according to the manufacturer's instructions.
The ibidi Pump System (#10902, ibidi) was used for cultivation of endothelial cells under flow conditions as well as for performing adhesion and rolling assays of human T cells on endothelial cells. The system consists of the ibidi Pump (#10905, ibidi) and the ibidi Fluidic Unit (#10903, ibidi) which work together to generate a unidirectional flow of medium in an attached slide with a defined channel height. The system is controlled by the ibidi Pump Control software (#10908, notebook+software, ibidi). For cultivation of HBMEC or HUVEC under flow conditions, HBMEC or HUVEC were seeded at a cell density of 2.5×10^6 cells/ml into μ-slide I^0.4 Luer Collagen IV (#80172, ibidi) or μ-slide I^0.4 Luer ibiTreat (#80176, ibidi), respectively according to the manufacturer's instructions and cultivated with a perfusion set “yellow/green” (#10964, ibidi) for 48 h under wall shear stress of 5 or 10 dyn/cm^2, respectively. […]

Blinatumomab: recombinant CD19×CD3 bispecific scFv antibody consisting of four immunoglobulin variable domains assembled into a single polypeptide chain
T cell-rolling velocity immediately after addition (10 ng/ml Blinatumomab, 0 min, long-term): no decrease of T cell-rolling velocity was detectable | mean T cell-rolling velocity±SD (10 ng/ml Blinatumomab, 45 min after addition, long-term, control −AMG 103 323±78): 209±40 μm/sec | mean T cell-rolling velocity±SD (histamine-stimulated HBMEC, +AMG 103 10 ng/ml, 45 min, control −AMG 103 430±92): 281±96 μm/sec | mean T cell-rolling velocity±SD (non-stimulated HBMEC (PPS experiment), +AMG 103 10 ng/ml, 40 min, control −AMG 103 399±153): 263±66 μm/sec | mean T cell-rolling velocity±SD (non-stimulated HBMEC (anti-CD11a experiment), +AMG 103 10 ng/ml, 10 min, control −AMG 103 304±40): 214 μm/sec | mean T cell-rolling velocity±SD (non-stimulated HBMEC (anti-CD162 experiment), +AMG 103 10 ng/ml, 45 min, control −AMG 103 539±149): 428±89 μm/sec | mean T cell-rolling velocity±SD (non-stimulated HBMEC (anti-ICAM-1 experiment), +AMG 103 10 ng/ml, 30 min, control −AMG 103 407±90): 335 μm/sec | mean T cell-rolling velocity±SD (non-stimulated HBMEC (anti-P-selectin experiment), +AMG 103 10 ng/ml, 40 min, control −AMG 103 449±90): 370±55 μm/sec | mean T cell-rolling velocity±SD (non-stimulated HBMEC (natalizumab experiment), +AMG 103 10 ng/ml, 40 min, control −AMG 103 482±149): 359±102 μm/sec | mean T cell-rolling velocity±SD (non-stimulated HBMEC (recombinant P-selectin experiment), +AMG 103 10 ng/ml, 45 min, control −AMG 103 386±77): 340±68 μm/sec
